Measured values published in the NIST ThermoML archive (doi:10.1016/j.jct.2017.03.026).
“And” between values parts separate entries of the source, which are not always exact repeats. Equal entries are not always repeated.

Assay: molar heat capacity at constant pressure
Conditions: 101.33 kPa, Crystal, Small (less than 1 g) adiabatic calorimetry

O.O.O.O.O.O=S(=O)([O-])[O-].[Cu+2] [copper(II) sulfate pentahydrate]
Conditions | molar heat capacity at constant pressure
263.9 K | 273.18 J/K/mol
263.97 K | 273.31 J/K/mol
264.29 K | 274.33 J/K/mol
264.46 K | 276.88 J/K/mol
264.57 K | 275.1 J/K/mol
264.65 K | 275.18 J/K/mol
264.69 K | 262.84 J/K/mol
264.78 K | 276.45 J/K/mol
264.88 K | 264.12 J/K/mol
264.96 K | 275.1 J/K/mol
265.24 K | 276.28 J/K/mol
265.28 K | 276.6 J/K/mol
265.59 K | 277.08 J/K/mol
265.9 K | 279.45 J/K/mol
265.91 K | 277.83 J/K/mol and 277.48 J/K/mol
266.22 K | 277.65 J/K/mol
266.54 K | 279.67 J/K/mol
266.57 K | 280.8 J/K/mol
266.85 K | 280.57 J/K/mol
267.02 K | 283.47 J/K/mol
267.12 K | 265.84 J/K/mol
267.16 K | 281.25 J/K/mol
267.24 K | 282.99 J/K/mol
267.47 K | 265.72 J/K/mol
267.48 K | 282.69 J/K/mol
267.49 K | 288.14 J/K/mol
267.79 K | 284.49 J/K/mol
267.89 K | 286.74 J/K/mol
268.1 K | 286.29 J/K/mol
268.14 K | 289.09 J/K/mol
268.41 K | 287.96 J/K/mol
268.56 K | 290.56 J/K/mol
268.72 K | 290.51 J/K/mol
269.03 K | 293.88 J/K/mol
269.21 K | 298.25 J/K/mol
269.26 K | 299.3 J/K/mol
269.34 K | 297.25 J/K/mol
269.69 K | 302.97 J/K/mol
269.86 K | 308.74 J/K/mol
270 K | 267.7 J/K/mol and 309.44 J/K/mol
270.26 K | 267.96 J/K/mol
270.3 K | 319.67 J/K/mol
270.38 K | 339.72 J/K/mol and 332.91 J/K/mol
270.48 K | 333.13 J/K/mol
270.59 K | 334.95 J/K/mol
270.88 K | 351.88 J/K/mol
271.09 K | 383.64 J/K/mol
271.16 K | 376.43 J/K/mol
271.44 K | 383.42 J/K/mol
271.46 K | 344.42 J/K/mol
271.62 K | 269.24 J/K/mol
271.71 K | 298.82 J/K/mol
271.74 K | 277.83 J/K/mol
272.06 K | 278.7 J/K/mol
272.36 K | 280.4 J/K/mol
272.37 K | 278.52 J/K/mol
272.63 K | 281.05 J/K/mol
272.69 K | 278.7 J/K/mol
273.01 K | 279.65 J/K/mol
273.04 K | 280.4 J/K/mol
273.15 K | 269.83 J/K/mol and 270.1 J/K/mol
273.27 K | 284.34 J/K/mol
273.33 K | 280.47 J/K/mol
273.64 K | 279.37 J/K/mol
273.74 K | 281.2 J/K/mol
273.8 K | 282.84 J/K/mol
273.88 K | 270.91 J/K/mol
273.96 K | 280.1 J/K/mol
274.28 K | 278.85 J/K/mol
274.4 K | 281.05 J/K/mol
274.64 K | 282.74 J/K/mol
274.93 K | 283.52 J/K/mol
274.96 K | 280.85 J/K/mol
275.07 K | 282.49 J/K/mol
275.27 K | 285.02 J/K/mol
275.6 K | 285.39 J/K/mol
275.73 K | 282.32 J/K/mol
275.91 K | 281.82 J/K/mol
275.93 K | 272.18 J/K/mol
276.06 K | 284.92 J/K/mol
276.14 K | 271.78 J/K/mol
276.23 K | 282.52 J/K/mol
276.26 K | 287.86 J/K/mol
276.39 K | 283.24 J/K/mol
276.54 K | 281.92 J/K/mol
276.86 K | 283.12 J/K/mol
277.05 K | 284.94 J/K/mol
277.17 K | 283.69 J/K/mol
277.18 K | 287.21 J/K/mol
277.48 K | 283.57 J/K/mol
277.71 K | 285.67 J/K/mol
277.8 K | 284.34 J/K/mol
278.11 K | 284.89 J/K/mol
278.31 K | 288.04 J/K/mol
278.37 K | 287.66 J/K/mol
278.38 K | 274.55 J/K/mol
278.43 K | 285.39 J/K/mol
278.71 K | 274.33 J/K/mol
278.74 K | 285.79 J/K/mol
279.05 K | 283.84 J/K/mol
279.06 K | 284.24 J/K/mol
279.23 K | 285.22 J/K/mol
279.37 K | 283.12 J/K/mol
279.45 K | 283.07 J/K/mol
279.71 K | 282.87 J/K/mol
279.74 K | 283.84 J/K/mol
280 K | 275.2 J/K/mol
280.05 K | 283.69 J/K/mol
280.37 K | 283.64 J/K/mol
280.38 K | 282.97 J/K/mol
280.57 K | 284.27 J/K/mol
280.66 K | 275.03 J/K/mol
280.69 K | 284.49 J/K/mol
281.02 K | 283.67 J/K/mol
281.05 K | 283.87 J/K/mol
281.33 K | 283.77 J/K/mol
281.48 K | 276.46 J/K/mol
281.65 K | 284.82 J/K/mol
281.7 K | 285.57 J/K/mol
281.71 K | 285.19 J/K/mol
281.97 K | 283.94 J/K/mol
282.27 K | 286.17 J/K/mol
282.29 K | 285.04 J/K/mol
282.39 K | 285.19 J/K/mol
282.6 K | 284.74 J/K/mol
282.84 K | 286.54 J/K/mol
282.91 K | 276.63 J/K/mol
282.92 K | 285.39 J/K/mol
283.05 K | 284.89 J/K/mol
283.24 K | 285.54 J/K/mol
283.56 K | 286.89 J/K/mol
283.72 K | 285.69 J/K/mol
283.88 K | 287.24 J/K/mol
283.97 K | 287.54 J/K/mol
284.2 K | 286.71 J/K/mol
284.24 K | 278.43 J/K/mol
284.43 K | 286.89 J/K/mol
284.52 K | 286.41 J/K/mol
284.89 K | 287.61 J/K/mol
285.09 K | 286.69 J/K/mol
285.11 K | 288.04 J/K/mol
285.16 K | 279.3 J/K/mol
285.21 K | 287.79 J/K/mol
285.23 K | 288.34 J/K/mol
285.54 K | 287.61 J/K/mol
285.76 K | 287.46 J/K/mol
285.86 K | 289.01 J/K/mol
286.18 K | 287.86 J/K/mol
286.25 K | 289.39 J/K/mol
286.42 K | 287.76 J/K/mol
286.51 K | 286.29 J/K/mol
286.83 K | 288.26 J/K/mol
287 K | 280.48 J/K/mol
287.09 K | 288.31 J/K/mol
287.16 K | 288.41 J/K/mol
287.4 K | 289.81 J/K/mol
287.46 K | 280.82 J/K/mol
287.49 K | 289.64 J/K/mol
